Experimental data reported in patent US7994360B2, “Benzofuran compounds” (XTL Biopharmaceuticals Ltd., priority 2005, dated 2011).

Key:
[1] = system: HCV Replicon (HCV IRES driven luciferase reporter) in Huh-Luc-Neo cells; experiment: HCV Replicon Luciferase Assay; conditions: Hepatitis C virus, 48 h, read-out: Luciferase IC50
Huh-Luc-Neo cells = experiment: CellTiter-Glo Cell Viability Assay; assay type: cell-based, human; conditions: inhibition of cell viability; for Toxicity % Inhibition at 50uM (2 doses): conditions identical to Replicon RNA assay; for Toxicity % Inhibition at 100 uM (1 dose): conditions identical to Luciferase assay (48 h)
[2] = system: HCV Replicon (HCV RNA) in Huh-Luc-Neo cells; experiment: HCV Replicon RNA Assay (Taqman quantitative PCR of HCV RNA); assay type: cell-based; conditions: Hepatitis C virus, compound added day 0 and day 1, HCV RNA by quantitative PCR, no unit printed in table (text gives hit threshold in μM)
Excerpt: Day 2, RNA Isolation and cDNA Synthesis: The cells are washed with 1× Phosphate Buffered Saline (PBS) once.

SMILES	IC50 [1]	Toxicity % Inhibition at 50uM (2 doses) (Huh-Luc-Neo cells)	Toxicity % Inhibition at 100 uM (1 dose) (Huh-Luc-Neo cells)	IC50 [2]
CC(=O)c1ccc(-c2c(-c3ccccc3Cl)oc3c(C#Cc4ccccc4Cl)cc(CO)cc23)cc1 [VQ–36165]	5.12 µM	5.7%	10.5%	1.31 µM
CC(=O)c1ccc(-c2c(-c3ccccc3C(F)(F)F)oc3c(C#Cc4ccccc4Cl)cc(CO)cc23)cc1 [VQ–36167]	12.2 µM	20.2%	33.2%	1.61 µM
